Assay: Body weight of low protein model rat fed amino acid added diet
Assay type: in vivo
Conditions: vs 1% C group
Protocol: Using 10-week-old CD(SD) male rats, they were raised on a 1 wt % casein feed obtained by reducing the protein in standard purified diet AIN-93G (manufactured by Oriental yeast Co., Ltd.) (Table 14). The animal fed on the 1 wt % casein diet for 28 days (4 weeks) was used as a low protein model, and an influence of amino acid administration was evaluated. 10-week-old CD(SD) male rats were divided into the groups shown in Table 17, casein 20 wt % (20% C group) or 1 wt % feed was fed for 28 days according to the schedule shown in FIG. 1, and the body weight of rats thereafter fed with a 1 wt % casein diet (1% C group),and further added with each amino acid shown in Table 16 (4AA addition group (4AA group); a group of 4AA less tryptophan (−Trp group); a group of 4AA less methionine (−Met group); and a group of 4AA less threonine (−Thr group)) was measured. 10-week-old CD(SD) male rats were divided into the groups shown in Table 18, casein 20 wt % (20% C group) or 1 wt % feed was fed for 28 days according to the schedule shown in FIG. 1, and the body weight of rats thereafter fed with a 1 wt % casein diet (1% C group), and further added with the amino acid shown in Table 16 (4AA addition group (4AA group); an isoleucine and threonine combined use group (Ile, Thr group); an isoleucine addition group (Ile group); and the a threonine addition group (Thr group)) was measured. 10-week-old CD(SD) male rats were divided into the groups shown in Table 19, casein 20 wt % (20% C group) or 1 wt % feed was fed for 28 days according to the schedule shown in FIG. 1, and the body weight and weight of viscera-isolated carcass of rats thereafter fed for 14 days with a 1 wt % casein diet (1% C group), and further added with 1.15 g of the amino acid shown in Table 20 per 1 kg feed (4AA addition group (4AA group); a group of essential and non-essential amino acids addition group less 4AA (ALL-4AA group); essential amino acid addition group less 4AA (EAA-4AA group), non-essential amino acid addition group (NEAA group); and glycine addition group (Gly group)) was measured. […]

[1] = Experimental Example 4, 14 days after feeding amino acid added 1 wt % casein diet, FIG. 5

Structure (SMILES) | body weight (ratio to day 0) (Experimental Example 5, 14 days after feeding diet with 1.15 g amino acid per 1 kg feed, FIG. 6) | body weight (ratio to day 0) [1]
NCC(=O)O [Gly, glycine] | not recovered | –
CC[C@H](C)[C@H](N)C(=O)O [Ile, isoleucine] | – | increase of the body weight was weakened
C[C@@H](O)[C@H](N)C(=O)O [Thr, threonine] | – | significantly recovered

— patent publication US20160367529A1, “DEBILITY PREVENTATIVE” (AJINOMOTO CO., INC., priority 2014, published 2016)
